Experiments:
HepG2 [1] = test: Cytotoxicity against human HepG2 cells assessed as surviving fraction ratio at 5 uM after 48 hrs by SRB assay relative to control; format: functional
HepG2 [2] = test: Cytotoxicity against human HepG2 cells assessed as surviving fraction ratio at 12.5 uM after 48 hrs by SRB assay relative to control; format: functional
HepG2 [3] = test: Cytotoxicity against human HepG2 cells assessed as surviving fraction ratio at 25 uM after 48 hrs by SRB assay relative to control; format: functional
HepG2 [4] = test: Cytotoxicity against human HepG2 cells assessed as surviving fraction ratio at 50 uM after 48 hrs by SRB assay relative to control; format: functional
HepG2 [5] = test: Cytotoxicity against human HepG2 cells assessed as surviving fraction ratio after 48 hrs by SRB assay relative to control; format: functional, cell-based
HepG2 [6] = test: Cytotoxicity against human HepG2 cells assessed as surviving fraction ratio at 5 uM incubated for 2 hrs prior to 8Gy gamma-irradiation measured after 48 hrs by ELISA reader relative to control; format: functional
HepG2 [7] = test: Cytotoxicity against human HepG2 cells assessed as surviving fraction ratio at 12.5 uM incubated for 2 hrs prior to 8Gy gamma-irradiation measured after 48 hrs by ELISA reader relative to control; format: functional
HepG2 [8] = test: Cytotoxicity against human HepG2 cells assessed as surviving fraction ratio at 25 uM incubated for 2 hrs prior to 8Gy gamma-irradiation measured after 48 hrs by ELISA reader relative to control; format: functional
HepG2 [9] = test: Cytotoxicity against human HepG2 cells assessed as surviving fraction ratio at 50 uM incubated for 2 hrs prior to 8Gy gamma-irradiation measured after 48 hrs by ELISA reader relative to control; format: functional
HepG2 [10] = test: Cytotoxicity against human HepG2 cells assessed as surviving fraction ratio incubated for 2 hrs prior to 8Gy gamma-irradiation measured after 48 hrs by ELISA reader relative to control; format: functional, cell-based; details: HepG2, light or radiation study
[11] = Homo sapiens, HepG2, 48 h, read-out: IC50

| SMILES | Ratio (HepG2 [1]) | Ratio (HepG2 [2]) | Ratio (HepG2 [3]) | Ratio (HepG2 [4]) | IC50 (HepG2 [5]; hepg2) | IC50 (HepG2 [5]; [11]) | Ratio (HepG2 [6]) | Ratio (HepG2 [7]) | Ratio (HepG2 [8]) | Ratio (HepG2 [9]) | IC50 (HepG2 [10]) |
| --- | --- | --- | --- | --- | --- | --- | --- | --- | --- | --- | --- |
| Cc1ccc(S(=O)(=O)Nc2ccc(C(=O)/C=C/c3ccccc3)cc2)cc1 | 2.385 | 2.032 | 1.017 | 0.529 | Not Active |  |  |  |  |  |  |
| CC(=O)c1ccc(NS(=O)(=O)c2ccc(C)cc2)cc1 | 1.048 | 0.726 | 0.547 | 0.367 |  | 35.8 µM |  |  |  |  |  |
| CC(=O)c1ccc(NS(=O)(=O)c2ccccc2)cc1 | 0.891 | 0.719 | 0.464 | 0.417 |  | 35.3 µM |  |  |  |  |  |
| Cc1ccc(S(=O)(=O)Nc2ccc(C(=O)/C=C/c3ccc([N+](=O)[O-])cc3)cc2)cc1 | 0.476 | 0.348 | 0.392 | 0.495 |  | 26 µM | 0.558 | 0.451 | 0.368 | 0.249 | 20.5 µM |
| C/C(=N\NC(=O)CC#N)c1ccc(NS(=O)(=O)c2ccccc2)cc1 | 0.881 | 0.778 | 0.361 | 0.242 |  | 28 µM |  |  |  |  |  |
| C/C(=N\NC(=O)CC#N)c1ccc(NS(=O)(=O)c2ccc(C)cc2)cc1 | 0.837 | 0.53 | 0.349 | 0.293 |  | 26 µM |  |  |  |  |  |
| C/C(=N/n1c(N)cc(N)c(C#N)c1=O)c1ccc(NS(=O)(=O)c2ccccc2)cc1 | 0.748 | 0.556 | 0.312 | 0.321 |  | 25.5 µM | 0.395 | 0.194 | 0.299 | 0.34 | 11.5 µM |
| C/C(=N\n1c(N)cc(N)c(C#N)c1=O)c1ccc(NS(=O)(=O)c2ccc(C)cc2)cc1 | 0.937 | 0.761 | 0.577 | 0.385 |  | 37 µM |  |  |  |  |  |
| C/C(=N\NC(=O)c1sc(N)c(C#N)c1N)c1ccc(NS(=O)(=O)c2ccccc2)cc1 | 0.869 | 0.456 | 0.239 | 0.274 |  | 23.3 µM | 0.526 | 0.386 | 0.253 | 0.322 | 18.3 µM |
| C/C(=N\NC(=O)c1sc(N)c(C#N)c1N)c1ccc(NS(=O)(=O)c2ccc(C)cc2)cc1 | 0.571 | 0.383 | 0.39 | 0.323 |  | 21.8 µM | 0.291 | 0.227 | 0.105 | 0.174 | 5.8 µM |
| C/C(=N/NC(=O)/C(C#N)=C/N(C)C)c1ccc(NS(=O)(=O)c2ccc(C)cc2)cc1 | 1.141 | 0.877 | 0.546 | 0.378 |  | 37.8 µM |  |  |  |  |  |
| C/C(=N/NC(=O)C(C#N)C(=S)S)c1ccc(NS(=O)(=O)c2ccc(C)cc2)cc1 (stereo not given) | 0.344 | 0.229 | 0.291 | 0.414 |  | 11 µM | 0.245 | 0.206 | 0.189 | 0.158 | 5 µM |
| C/C(=N/NC(=O)c1sc2c(c1N)CCCC2)c1ccc(NS(=O)(=O)c2ccc(C)cc2)cc1 | 0.868 | 0.528 | 0.331 | 0.277 |  | 25.5 µM | 0.521 | 0.524 | 0.329 | 0.229 | 20 µM |
| COc1ccc(-c2c(C#N)c(N)n(/N=C(/C)c3ccc(NS(=O)(=O)c4ccc(C)cc4)cc3)c(=O)c2C#N)cc1 | 0.984 | 0.696 | 0.363 | 0.375 |  | 31.8 µM |  |  |  |  |  |
| C/C(=N/n1c(N)c(C#N)c(-c2ccc([N+](=O)[O-])cc2)c(C#N)c1=O)c1ccc(NS(=O)(=O)c2ccc(C)cc2)cc1 | 0.951 | 0.635 | 0.331 | 0.408 |  | 31.5 µM | 0.439 | 0.603 | 0.345 | 0.352 | 23.5 µM |
| Cc1ccc(/C=C/C(=O)c2ccc(NS(=O)(=O)c3ccc(C)cc3)cc2)cc1 | 1.931 | 1.616 | 0.781 | 0.489 |  | 49.8 µM |  |  |  |  |  |
| Cc1ccc(S(=O)(=O)Nc2ccc(C(=O)/C=C/c3ccc(F)cc3)cc2)cc1 | 1.461 | 0.497 | 0.383 | 0.551 |  | 39.3 µM |  |  |  |  |  |
| Cc1ccc(S(=O)(=O)Nc2ccc(C(=O)/C=C/c3ccc(Cl)cc3)cc2)cc1 | 2.16 | 1.478 | 0.591 | 0.402 |  | 43.3 µM |  |  |  |  |  |
| Cc1ccc(S(=O)(=O)Nc2ccc(C(=O)/C=C/c3ccc(Br)cc3)cc2)cc1 | 0.584 | 0.505 | 0.43 | 0.445 |  | 30.3 µM | 0.591 | 0.471 | 0.394 | 0.408 | 26.8 µM |
| Cc1ccc(S(=O)(=O)Nc2ccc(C(/C=C/c3ccc([N+](=O)[O-])cc3)=N\O)cc2)cc1 | 1.723 | 1.769 | 1.351 | 0.632 | Not Active |  |  |  |  |  |  |
| Cc1ccc(S(=O)(=O)Nc2ccc(-c3cc(-c4ccc([N+](=O)[O-])cc4)[nH]n3)cc2)cc1 | 1.772 | 1.197 | 0.522 | 0.508 |  | 44.8 µM |  |  |  |  |  |
| Cc1ccc(S(=O)(=O)Nc2ccc(-c3cc(-c4ccc([N+](=O)[O-])cc4)n(-c4ccccc4)n3)cc2)cc1 | 2.085 | 1.841 | 0.923 | 0.536 | Not Active |  |  |  |  |  |  |
| Cc1ccc(S(=O)(=O)Nc2ccc(-c3cc(-c4ccc([N+](=O)[O-])cc4)n(C(N)=S)n3)cc2)cc1 | 1.907 | 1.759 | 1.078 | 0.5 | Not Active |  |  |  |  |  |  |
| Cc1ccc(S(=O)(=O)Nc2ccc(-c3cc(-c4ccc([N+](=O)[O-])cc4)n(C(=S)NN)n3)cc2)cc1 | 1.766 | 1.189 | 0.507 | 0.53 |  | 45.3 µM |  |  |  |  |  |
| Cc1ccc(S(=O)(=O)Nc2ccc(-c3cc(-c4ccc([N+](=O)[O-])cc4)[nH]c(=O)n3)cc2)cc1 | 1.619 | 0.95 | 0.732 | 0.481 |  | 46.3 µM |  |  |  |  |  |
| Cc1ccc(S(=O)(=O)Nc2ccc(-c3cc(-c4ccc([N+](=O)[O-])cc4)[nH]c(=S)n3)cc2)cc1 | 1.066 | 0.805 | 0.486 | 0.398 |  | 36.5 µM |  |  |  |  |  |
